Reference: the supplement of paper PMC13207355
Where a name gives a salt, the structure may show the parent alone.

Experiments:
Conditions in all cases: exposure time: 72 h
E34 [1] = patient-derived glioblastoma stem cells of proneural subtype; assay: phenotypic distance (Euclidean, principal components) from DMSO controls (arbitrary units); higher = stronger morphological change
E13 [2] = patient-derived glioblastoma stem cells of classical subtype; assay: as above
E31 [3] = patient-derived glioblastoma stem cells of proneural subtype; assay: as above
FT3469 [4] = normal neural stem cell line; assay: as above
E28 [5] = patient-derived glioblastoma stem cells of classical subtype; assay: as above
E57 [6] = patient-derived glioblastoma stem cells of mesenchymal subtype; assay: as above
E21 [7] = patient-derived glioblastoma stem cells of mesenchymal subtype; assay: as above
E34 [8] = assay: surviving fraction (nuclei count normalised to DMSO); higher = more cells surviving (less toxic)
E13 [9] = assay: as above
E31 [10] = assay: as above
FT3469 [11] = assay: as above
E28 [12] = assay: as above
E57 [13] = assay: as above
E21 [14] = assay: as above
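Wherever phenotypic distance (Euclidean, principal components) from DMSO controls is given: cell Painting imaging in 384-well plates, CellProfiler features reduced to at least 20 principal components, Euclidean distance versus same-plate DMSO vehicle wells (0.1% v/v), median over six images per well.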
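Wherever surviving fraction (nuclei count normalised to DMSO) is given: nuclei counted by high-content imaging of Hoechst-stained cells in laminin-coated 384-well plates, relative to 0.1% DMSO vehicle wells, with staurosporine as cell-death control.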

Cc1cc(/C=C/c2ccc3cc(N(C)C)ccc3[n+]2C)c(C)n1-c1ccccc1 [Pyrvinium pamoate]
Conditions | phenotypic distance | surviving fraction
E13 [2], 4.1 nM | 4.29 | –
E13 [2], 12.3 nM | 1.32 | –
E13 [2], 37 nM | 2.18 | –
E13 [2], 111.1 nM | 4.63 | –
E13 [2], 333.3 nM | 4.15 | –
E13 [2], 1000 nM | 4.49 | –
E13 [2], 3000 nM | 6.77 | –
E13 [9], 4.1 nM | – | 0.769
E13 [9], 12.3 nM | – | 0.742
E13 [9], 37 nM | – | 0.57
E13 [9], 111.1 nM | – | 0.408
E13 [9], 333.3 nM | – | 0.479
E13 [9], 1000 nM | – | 0.264
E13 [9], 3000 nM | – | 0.0823
E21 [7], 4.1 nM | 0.978 | –
E21 [7], 12.3 nM | 1.16 | –
E21 [7], 37 nM | 2.86 | –
E21 [7], 111.1 nM | 4.87 | –
E21 [7], 333.3 nM | 4.65 | –
E21 [7], 1000 nM | 6.33 | –
E21 [7], 3000 nM | 23.7 | –
E21 [14], 4.1 nM | – | 0.856
E21 [14], 12.3 nM | – | 0.815
E21 [14], 37 nM | – | 0.577
E21 [14], 111.1 nM | – | 0.467
E21 [14], 333.3 nM | – | 0.425
E21 [14], 1000 nM | – | 0.149
E21 [14], 3000 nM | – | 0.00213
E28 [5], 4.1 nM | 0.873 | –
E28 [5], 12.3 nM | 1.67 | –
E28 [5], 37 nM | 2.93 | –
E28 [5], 111.1 nM | 4.57 | –
E28 [5], 333.3 nM | 4.5 | –
E28 [5], 1000 nM | 4.93 | –
E28 [5], 3000 nM | 9.86 | –
E28 [12], 4.1 nM | – | 0.853
E28 [12], 12.3 nM | – | 0.704
E28 [12], 37 nM | – | 0.547
E28 [12], 111.1 nM | – | 0.278
E28 [12], 333.3 nM | – | 0.195
E28 [12], 1000 nM | – | 0.106
E28 [12], 3000 nM | – | 0.0134
E31 [3], 4.1 nM | 1.33 | –
E31 [3], 12.3 nM | 1.04 | –
E31 [3], 37 nM | 2.33 | –
E31 [3], 111.1 nM | 5.34 | –
E31 [3], 333.3 nM | 7.12 | –
E31 [3], 1000 nM | 9.54 | –
E31 [3], 3000 nM | 18.8 | –
E31 [10], 4.1 nM | – | 1.01
E31 [10], 12.3 nM | – | 0.828
E31 [10], 37 nM | – | 0.484
E31 [10], 111.1 nM | – | 0.21
E31 [10], 333.3 nM | – | 0.146
E31 [10], 1000 nM | – | 0.0654
E31 [10], 3000 nM | – | 0
E34 [1], 4.1 nM | 0.966 | –
E34 [1], 12.3 nM | 0.752 | –
E34 [1], 37 nM | 1.33 | –
E34 [1], 111.1 nM | 3.14 | –
E34 [1], 333.3 nM | 3.58 | –
E34 [1], 1000 nM | 4.06 | –
E34 [1], 3000 nM | 6.46 | –
E34 [8], 4.1 nM | – | 0.92
E34 [8], 12.3 nM | – | 0.867
E34 [8], 37 nM | – | 0.645
E34 [8], 111.1 nM | – | 0.578
E34 [8], 333.3 nM | – | 0.667
E34 [8], 1000 nM | – | 0.443
E34 [8], 3000 nM | – | 0.5
E57 [6], 4.1 nM | 1.23 | –
E57 [6], 12.3 nM | 0.86 | –
E57 [6], 37 nM | 2.14 | –
E57 [6], 111.1 nM | 6.51 | –
E57 [6], 333.3 nM | 7.55 | –
E57 [6], 1000 nM | 8.44 | –
E57 [6], 3000 nM | 11.2 | –
E57 [13], 4.1 nM | – | 1.05
E57 [13], 12.3 nM | – | 1.01
E57 [13], 37 nM | – | 0.785
E57 [13], 111.1 nM | – | 0.364
E57 [13], 333.3 nM | – | 0.272
E57 [13], 1000 nM | – | 0.155
E57 [13], 3000 nM | – | 0.0231
FT3469 [4], 4.1 nM | 1.38 | –
FT3469 [4], 12.3 nM | 1.31 | –
FT3469 [4], 37 nM | 2.27 | –
FT3469 [4], 111.1 nM | 2.94 | –
FT3469 [4], 333.3 nM | 3.78 | –
FT3469 [4], 1000 nM | 7.4 | –
FT3469 [4], 3000 nM | 13 | –
FT3469 [11], 4.1 nM | – | 0.97
FT3469 [11], 12.3 nM | – | 0.882
FT3469 [11], 37 nM | – | 0.866
FT3469 [11], 111.1 nM | – | 0.677
FT3469 [11], 333.3 nM | – | 0.61
FT3469 [11], 1000 nM | – | 0.461
FT3469 [11], 3000 nM | – | 0.0541

CCC(C)(C)c1ccc(CC(C)CN2C[C@@H](C)O[C@@H](C)C2)cc1 (stereo partly specified) [Amorolfine hydrochloride]
Conditions | phenotypic distance | surviving fraction
E13 [2], 4.1 nM | 0.768 | –
E13 [2], 12.3 nM | 0.554 | –
E13 [2], 37 nM | 0.708 | –
E13 [2], 111.1 nM | 0.428 | –
E13 [2], 333.3 nM | 0.915 | –
E13 [2], 1000 nM | 1.17 | –
E13 [2], 3000 nM | 3.08 | –
E13 [9], 4.1 nM | – | 0.95
E13 [9], 12.3 nM | – | 0.95
E13 [9], 37 nM | – | 1
E13 [9], 111.1 nM | – | 0.97
E13 [9], 333.3 nM | – | 0.959
E13 [9], 1000 nM | – | 0.957
E13 [9], 3000 nM | – | 0.638
E21 [7], 4.1 nM | 0.885 | –
E21 [7], 12.3 nM | 0.483 | –
E21 [7], 37 nM | 0.732 | –
E21 [7], 111.1 nM | 0.989 | –
E21 [7], 333.3 nM | 1.11 | –
E21 [7], 1000 nM | 1.17 | –
E21 [7], 3000 nM | 1.97 | –
E21 [14], 4.1 nM | – | 0.94
E21 [14], 12.3 nM | – | 1.02
E21 [14], 37 nM | – | 0.982
E21 [14], 111.1 nM | – | 1.09
E21 [14], 333.3 nM | – | 1.03
E21 [14], 1000 nM | – | 1.07
E21 [14], 3000 nM | – | 0.816
E28 [5], 4.1 nM | 0.829 | –
E28 [5], 12.3 nM | 0.874 | –
E28 [5], 37 nM | 0.838 | –
E28 [5], 111.1 nM | 0.682 | –
E28 [5], 333.3 nM | 0.846 | –
E28 [5], 1000 nM | 0.746 | –
E28 [5], 3000 nM | 1.38 | –
E28 [12], 4.1 nM | – | 1.09
E28 [12], 12.3 nM | – | 0.852
E28 [12], 37 nM | – | 1.21
E28 [12], 111.1 nM | – | 0.914
E28 [12], 333.3 nM | – | 1.17
E28 [12], 1000 nM | – | 0.839
E28 [12], 3000 nM | – | 0.777
E31 [3], 4.1 nM | 0.639 | –
E31 [3], 12.3 nM | 0.653 | –
E31 [3], 37 nM | 0.833 | –
E31 [3], 111.1 nM | 0.88 | –
E31 [3], 333.3 nM | 0.504 | –
E31 [3], 1000 nM | 1.35 | –
E31 [3], 3000 nM | 2.01 | –
E31 [10], 4.1 nM | – | 0.939
E31 [10], 12.3 nM | – | 0.934
E31 [10], 37 nM | – | 0.967
E31 [10], 111.1 nM | – | 0.983
E31 [10], 333.3 nM | – | 1.05
E31 [10], 1000 nM | – | 0.996
E31 [10], 3000 nM | – | 0.804
E34 [1], 4.1 nM | 0.551 | –
E34 [1], 12.3 nM | 1.11 | –
E34 [1], 37 nM | 1.1 | –
E34 [1], 111.1 nM | 1.17 | –
E34 [1], 333.3 nM | 0.856 | –
E34 [1], 1000 nM | 0.796 | –
E34 [1], 3000 nM | 1.7 | –
E34 [8], 4.1 nM | – | 0.983
E34 [8], 12.3 nM | – | 1.06
E34 [8], 37 nM | – | 0.937
E34 [8], 111.1 nM | – | 1.06
E34 [8], 333.3 nM | – | 1.09
E34 [8], 1000 nM | – | 1.14
E34 [8], 3000 nM | – | 0.815
E57 [6], 4.1 nM | 0.935 | –
E57 [6], 12.3 nM | 0.283 | –
E57 [6], 37 nM | 0.726 | –
E57 [6], 111.1 nM | 0.552 | –
E57 [6], 333.3 nM | 0.896 | –
E57 [6], 1000 nM | 1.08 | –
E57 [6], 3000 nM | 2.02 | –
E57 [13], 4.1 nM | – | 1
E57 [13], 12.3 nM | – | 0.954
E57 [13], 37 nM | – | 1.05
E57 [13], 111.1 nM | – | 1.02
E57 [13], 333.3 nM | – | 0.957
E57 [13], 1000 nM | – | 0.983
E57 [13], 3000 nM | – | 1.02
FT3469 [4], 4.1 nM | 1.11 | –
FT3469 [4], 12.3 nM | 0.614 | –
FT3469 [4], 37 nM | 1.09 | –
FT3469 [4], 111.1 nM | 0.588 | –
FT3469 [4], 333.3 nM | 0.893 | –
FT3469 [4], 1000 nM | 0.525 | –
FT3469 [4], 3000 nM | 1.13 | –
FT3469 [11], 4.1 nM | – | 1.01
FT3469 [11], 12.3 nM | – | 0.924
FT3469 [11], 37 nM | – | 1.24
FT3469 [11], 111.1 nM | – | 1.1
FT3469 [11], 333.3 nM | – | 1.02
FT3469 [11], 1000 nM | – | 0.973
FT3469 [11], 3000 nM | – | 1.02
